Source: patent US20260042745A1, “PYRROLIDINE-2-CARBOXAMIDE DERIVATIVES AS PROSTAGLANDIN E2 RECEPTOR 4 (EP4) AGONISTS FOR THE TREATMENT OF GASTROINTESTINAL AND PULMONARY DISEASES” (NXERA PHARMA UK LIMITED, priority 2022, published 2026)

Tests used:
[1] = Unidirectional Caco-2 cell permeability assay; type: in vitro ADME; settings: human, apical pH 6.5, basolateral pH 7.4, 1 hour, 37° C., n=2
Description: Caco-2 cells (ECACC) were seeded onto 24-well Transwell plates at 2×10^5 cells per well and used in confluent monolayers after a 21 day culture at 37° C. under 500 CO2. Test compounds were incubated at 10 μM, 0.2% DMSO final, n=2 in assay buffer (Hanks balanced salt solution supplemented with 25 mM HEPES, adjusted to pH 6.5). Hanks balanced salt solution supplemented with 25 mM HEPES, adjusted to pH 7.4 (0.2% DMSO final) was used for the basolateral chamber (as receiver).
Incubations were performed at 37° C., with samples removed from both donor and acceptor chambers at T=0 and 1 hour and compound analysed by mass spectrometry (LC-MS/MS) including an analytical internal standard ([…] carbamazepine).
Apparent permeability (Papp) values are shown in Table 3 and were determined from the relationship:
Where V is the volume of each Transwell compartment (apical 125 μL, basolateral 600 μL), and concentrations are the relative MS responses for compound (normalized to internal standard) in the donor chamber before incubation and acceptor chamber at the end of the incubation Area=area of cells exposed for drug transfer (0.33 cm^2).
Lucifer Yellow (LY) was added to the apical buffer in all wells to assess viability of the cell layer. As LY cannot freely permeate lipophilic barriers, a high degree of LY transport indicates poor integrity of the cell layer and wells with a LY Papp>10×10^−6 cm/s were rejected.
Compound recovery from the wells was determined from MS responses (normalized to internal standard) in donor and acceptor chambers at the end of incubation compared to response in the donor chamber pre-incubation.

[2] = molecular target: T1, human EP4 (Homo sapiens, UniProt P35408); test: cAMP Gs functional assay (HTRF cAMP dynamic-2) in EP4-transfected HEK293 cells; type: cell-based; settings: HEK293 cells transfected with EP4 BacMam virus; for EC50: 30 min at 37° C., HTRF cAMP, read-out: cAMP human EP4 pEC50 (converted); for cAMP human EP4 Emax: positive control PGE2
T1 construct: expressed in transfected cells; host or cells: HEK293 cells transduced with EP4 BacMam baculovirus
Description: Cloning, Baculovirus generation, large scale infection of HEK293 cells and membrane preparation: Human prostaglandin E2 receptor 4 (EP4) was cloned into pBacMam expression vector (GeneScript, UK). Transposition of EP4 DNA was performed using Invitrogen's Bac-to-Bac Baculovirus Expression Systems. P0 baculovirus was generated by transfecting SF9 Cells with bacmid DNA using Cellfectin II transfection reagent (ThermoFisher Scientific, UK). Following P0 generation P1 virus was then generated ready for large scale infection and membrane preparation. HEK293 cells were grown in DMEM (ThermoFisher Scientific, UK), supplemented with 10% heat inactivated fetal bovine serum (FBS). Cells were infected at a seeding density of 3.5 million cells/mL in 500 cm^3 flasks at 5% v/v EP4 Bacman. Expression was carried out over a 36 hour period at 37° C. with 5% CO2. The cells were removed using PBS and a cell scrapper. The cell culture was centrifuged at 2500 RPM for 10 mins at 4° C. The supernatant was then poured off and the pellet stored at −80° C. The pellet was defrosted and re-suspended in 15 mL of homogenising buffer (20 mM HEPES, 10 mM EDTA, pH 7.4). Then homogenised in mechanical homogeniser (VMR) for 10 seconds. The membrane was centrifuged in centrifuge tubes at 40,000 g for 15 mins at 4° C. The supernatant was poured away and re-suspended in 15 mL of homogenising buffer and homogenised for 20 seconds. The membrane was then centrifuged at 40,000 g for 45 mins at 4° C. The membrane was then re-suspended in 3 mL of storage buffer (20 mM HEPES, 0.1 mM EDTA, pH 7.4) mixing well. The resulting membranes were then stored at −80° C.
cAMP Gs Functional Assay: cAMP production following EP4 receptor activation was determined using the Homogeneous Time-Resolved Fluorescence (HTRF) cAMP dynamic-2 assay (Cisbio, France). HEK293 cells were transfected using a 0.5% EP4 Bacman virus for 36 hours, before dissociating the cells, and freezing at −150° C.
On the day of testing, increasing concentration of test compounds, alongside positive controls ([…] PGE2 (Tocris, Abingdon, UK)) and negative control (DMSO (Sigma-Aldrich, UK) were added to a ProxiPlate-384 Plus, White 384-shallow well Mircoplate, (PerkinElmer, USA) using the ECHO dispense.
Cells were defrosted in a water bath and resuspended in DMEM supplemented with 10% FBS before centrifuging at 1200 RPM for 5 mins to form a pellet. The pellet was resuspended in assay buffer (DMEM+0.5 mM IBMX (Tocris, Abingdon, UK)) to 0.5×10^6 cells/mL. Cell suspension, for a final assay concentration of 5000 cell/well was added using the multidrop to the pre-dispensed assay plate. The plate was then incubated at 37° C. for 30 mins, with 5% CO2. The cAMP production was determined as manufacturer's instructions, before plates were read on a PheraStar fluorescence plate reader (BMG LabTech, Germany).

T1 sequence (P35408 whole entry): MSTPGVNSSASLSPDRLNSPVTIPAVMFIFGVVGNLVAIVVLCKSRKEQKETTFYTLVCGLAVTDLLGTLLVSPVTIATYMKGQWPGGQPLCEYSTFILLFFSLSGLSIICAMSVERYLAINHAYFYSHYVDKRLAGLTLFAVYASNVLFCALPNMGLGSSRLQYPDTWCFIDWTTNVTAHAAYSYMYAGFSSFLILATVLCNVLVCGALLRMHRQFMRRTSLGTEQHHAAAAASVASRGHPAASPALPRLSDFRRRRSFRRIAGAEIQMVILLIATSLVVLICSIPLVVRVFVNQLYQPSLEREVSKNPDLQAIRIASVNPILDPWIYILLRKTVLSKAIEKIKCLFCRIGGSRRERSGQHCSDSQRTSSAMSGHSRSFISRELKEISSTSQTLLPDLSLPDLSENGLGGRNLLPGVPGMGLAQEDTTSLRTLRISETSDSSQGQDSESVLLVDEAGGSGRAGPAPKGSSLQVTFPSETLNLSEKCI

SMILES | Papp A→B at 1 h, 10 μM [1] [×10⁻⁶ cm/s] | EC50 [2] [nM] | cAMP human EP4 Emax [2] [%]
Cc1cc(S(N)(=O)=O)ccc1-c1cc(O)cc(CN2CCC[C@@H]2C(=O)N[C@@H](C)c2ccc(C(=O)O)cc2)c1 [Example 20, 4-((S)-1-((R)-1-((5-hydroxy-2′-methyl-4′-sulfamoyl-[1,1′-biphenyl]-3-yl)methyl)pyrrolidine-2-carboxamido)ethyl)benzoic acid] | < 0.1 | 0.631 | 98
Cc1cc(O)ccc1-c1cc(O)cc(CN2CCC[C@@H]2C(=O)N[C@@H](C)c2ccc(C(=O)O)cc2)c1 [Example 33, 4-((S)-1-((R)-1-((4′,5-dihydroxy-2′-methyl-[1,1′-biphenyl]-3-yl)methyl)pyrrolidine-2-carboxamido)ethyl)benzoic acid] | 0.32 | 0.0316 | 97
Cc1cc(C(=O)O)ccc1-c1cccc(CN2CCC[C@@H]2C(=O)N[C@@H](C)c2ccc(C(=O)O)cc2)c1 [Example 9, 3′-(((R)-2-(((S)-1-(4-carboxyphenyl)ethyl)carbamoyl)pyrrolidin-1-yl)methyl)-2-methyl-[1,1′-biphenyl]-4-carboxylic acid] | 0.33 | 200 | 96
Cc1cc(C(N)=O)ccc1-c1cccc(CN2CC3CC2(C(=O)N[C@@H](C)c2ccc(C(=O)O)cc2)C3)c1 [Example 28, (S)-4-(1-(2-((4′-carbamoyl-2′-methyl-[1,1′-biphenyl]-3-yl)methyl)-2-azabicyclo[2.1.1]hexane-1-carboxamido)ethyl)benzoic acid] | < 0.12 | 25.1 | 76
Cc1cc(O)ccc1-c1cc(O)cc(CN2CCC[C@@H]2C(=O)N[C@@H](C)c2ccc(C(=O)O)c(O)c2)c1 [Example 35, 4-((S)-1-((R)-1-((4′,5-dihydroxy-2′-methyl-[1,1′-biphenyl]-3-yl)methyl)pyrrolidine-2-carboxamido)ethyl)-2-hydroxybenzoic acid] | < 0.1 | 0.0501 | 97
Cc1cc(C(N)=O)ccc1-c1cccc(CN2CCC[C@@H]2C(=O)NCc2ccc(C(=O)O)c(O)c2)c1 [Example 15, (R)-4-((1-((4′-carbamoyl-2′-methyl-[1,1′-biphenyl]-3-yl)methyl)pyrrolidine-2-carboxamido)methyl)-2-hydroxybenzoic acid] | < 0.1 | 31.6 | 96
Cc1cc(C(N)=O)ccc1-c1cc(O)cc(CN2C[C@H](O)C[C@@H]2C(=O)N[C@@H](C)c2ccc(C(=O)O)cc2)c1 [Example 21, 4-((S)-1-((2R,4R)-1-((4′-carbamoyl-5-hydroxy-2′-methyl-[1,1′-biphenyl]-3-yl)methyl)-4-hydroxypyrrolidine-2-carboxamido)ethyl)benzoic acid] | < 0.11 | 7.94 | 96
C[C@H](NC(=O)[C@H]1CCCN1Cc1cccc(-c2ccc(O)cc2)c1)c1ccc(C(=O)O)cc1 [Example 7, 4-((S)-1-((R)-1-((4′-hydroxy-[1,1′-biphenyl]-3-yl)methyl)pyrrolidine-2-carboxamido)ethyl)benzoic acid] | 7.71 | > 10000 | 
Cc1cc(O)ccc1-c1cccc(CN2C[C@H](O)C[C@@H]2C(=O)N[C@@H](C)c2ccc(C(=O)O)cc2)c1 [Example 5, 4-((S)-1-((2R,4R)-4-hydroxy-1-((4′-hydroxy-2′-methyl-[1,1′-biphenyl]-3-yl)methyl)pyrrolidine-2-carboxamido)ethyl)benzoic acid] | 0.36 | 63.1 | 80
Cc1cc(C(N)=O)ccc1-c1cc(CN2CCC[C@@H]2C(=O)N[C@@H](C)c2ccc(C(=O)O)cc2)ccc1O [Example 14] | 0.19 | 158 | 100
Cc1cc(S(N)(=O)=O)ccc1-c1cccc(CN2CCC[C@@H]2C(=O)N[C@@H](C)c2ccc(C(=O)O)c(O)c2)c1 [Example 18, 2-hydroxy-4-((S)-1-((R)-1-((2′-methyl-4′-sulfamoyl-[1,1′-biphenyl]-3-yl)methyl)pyrrolidine-2-carboxamido)ethyl)benzoic acid] | 0.11 | 3.16 | 95
Cc1cc(O)ccc1-c1cccc(CN2CCC[C@@H]2C(=O)N[C@@H](C)c2ccc(C(=O)O)cc2)c1 [Example 1] | 14.5 | 2 | 81
Cc1cc(C(N)=O)ccc1-c1cc(O)cc(CN2CCC[C@@H]2C(=O)N[C@@H](C)c2ccc(C(=O)O)c(O)c2)c1 [Example 34, 4-((S)-1-((R)-1-((4′-carbamoyl-5-hydroxy-2′-methyl-[1,1′-biphenyl]-3-yl)methyl)pyrrolidine-2-carboxamido)ethyl)-2-hydroxybenzoic acid] | 0.24 | 0.2 | 100
C[C@H](NC(=O)[C@H]1CCCN1Cc1ccc(O)c(-c2ccc(S(N)(=O)=O)cc2)c1)c1ccc(C(=O)O)cc1 [Example 19] | < 0.12 | 100 | 90
Cc1cc(C(N)=O)ccc1-c1cc(O)cc(CN2CC3CC2(C(=O)N[C@@H](C)c2ccc(C(=O)O)cc2)C3)c1 [Example 23, (S)-4-(1-(2-((4′-carbamoyl-5-hydroxy-2′-methyl-[1,1′-biphenyl]-3-yl)methyl)-2-azabicyclo[2.1.1]hexane-1-carboxamido)ethyl)benzoic acid] | 0.245 | 0.158 | 91
Cc1cc(OS(N)(=O)=O)ccc1-c1cccc(CN2CCC[C@@H]2C(=O)N[C@@H](C)c2ccc(C(=O)O)cc2)c1 [Example 10] | 1.84 | 2 | 96
Cc1cc(C(N)=O)ccc1-c1cccc(CN2CCC[C@@H]2C(=O)N[C@@H](C)c2ccc(C(=O)O)cc2)c1 [Example 3, 4-((S)-1-((R)-1-((4′-carbamoyl-2′-methyl-[1,1′-biphenyl]-3-yl)methyl)pyrrolidine-2-carboxamido)ethyl)benzoic acid] | 1.18 | 12.6 | 100
Cc1cc(S(N)(=O)=O)ccc1-c1cccc(CN2CCC[C@@H]2C(=O)NC2(c3ccc(C(=O)O)cc3)CC2)c1 [Example 30, (R)-4-(1-(1-((2′-methyl-4′-sulfamoyl-[1,1′-biphenyl]-3-yl)methyl)pyrrolidine-2-carboxamido)cyclopropyl)benzoic acid] | 0.29 | 0.501 | 99
Cc1cc(C(N)=O)ccc1-c1cccc(CN2C[C@H](O)C[C@@H]2C(=O)N[C@@H](C)c2ccc(C(=O)O)cc2)c1 [Example 6, 4-((S)-1-((2R,4R)-1-((4′-carbamoyl-2′-methyl-[1,1′-biphenyl]-3-yl)methyl)-4-hydroxypyrrolidine-2-carboxamido)ethyl)benzoic acid] | 0.85 | 501 | 91
